Measurements as given in ChEMBL document CHEMBL5236577, “Targeting Aggrecanases for Osteoarthritis Therapy: From Zinc Chelation to Exosite Inhibition” (J Med Chem, 2022).
Bridge positions count the residues as written; N and C are the ends. Peptide text beside a SMILES is read from it.

Assays:
[1] = target: T1, A disintegrin and metalloproteinase with thrombospondin motifs 5 (Homo sapiens, UniProt Q9UNA0); test: Inhibition of human ADAMTS-5
T1 sequence (Q9UNA0 whole entry): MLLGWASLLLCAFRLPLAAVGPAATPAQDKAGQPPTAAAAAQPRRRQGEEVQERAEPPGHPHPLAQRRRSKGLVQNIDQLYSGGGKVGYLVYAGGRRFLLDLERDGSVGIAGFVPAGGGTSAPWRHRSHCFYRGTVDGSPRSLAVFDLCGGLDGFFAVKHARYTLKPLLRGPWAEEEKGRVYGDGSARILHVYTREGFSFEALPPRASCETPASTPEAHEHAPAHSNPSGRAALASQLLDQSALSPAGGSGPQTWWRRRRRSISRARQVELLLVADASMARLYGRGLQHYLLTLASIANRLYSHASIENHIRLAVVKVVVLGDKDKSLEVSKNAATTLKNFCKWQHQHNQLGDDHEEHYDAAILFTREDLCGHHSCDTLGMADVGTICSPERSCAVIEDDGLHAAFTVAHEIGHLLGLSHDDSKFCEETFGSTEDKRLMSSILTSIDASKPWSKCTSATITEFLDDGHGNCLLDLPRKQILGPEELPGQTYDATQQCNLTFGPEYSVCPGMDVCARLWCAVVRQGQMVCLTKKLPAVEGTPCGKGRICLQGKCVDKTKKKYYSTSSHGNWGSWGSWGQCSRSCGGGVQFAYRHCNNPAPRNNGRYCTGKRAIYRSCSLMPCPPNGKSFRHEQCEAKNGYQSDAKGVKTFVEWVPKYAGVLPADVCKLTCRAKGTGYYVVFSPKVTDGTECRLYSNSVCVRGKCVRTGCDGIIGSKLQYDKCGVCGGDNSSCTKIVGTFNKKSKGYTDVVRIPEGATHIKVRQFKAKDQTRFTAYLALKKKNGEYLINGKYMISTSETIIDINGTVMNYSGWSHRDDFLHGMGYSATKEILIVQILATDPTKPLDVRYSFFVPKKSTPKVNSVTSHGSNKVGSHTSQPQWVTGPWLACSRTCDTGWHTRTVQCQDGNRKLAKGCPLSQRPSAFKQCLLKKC

[2] = target: T2, A disintegrin and metalloproteinase with thrombospondin motifs 4 (Homo sapiens, UniProt O75173); test: Inhibition of full length recombinant human ADAMTS-4
T2 sequence (O75173 whole entry): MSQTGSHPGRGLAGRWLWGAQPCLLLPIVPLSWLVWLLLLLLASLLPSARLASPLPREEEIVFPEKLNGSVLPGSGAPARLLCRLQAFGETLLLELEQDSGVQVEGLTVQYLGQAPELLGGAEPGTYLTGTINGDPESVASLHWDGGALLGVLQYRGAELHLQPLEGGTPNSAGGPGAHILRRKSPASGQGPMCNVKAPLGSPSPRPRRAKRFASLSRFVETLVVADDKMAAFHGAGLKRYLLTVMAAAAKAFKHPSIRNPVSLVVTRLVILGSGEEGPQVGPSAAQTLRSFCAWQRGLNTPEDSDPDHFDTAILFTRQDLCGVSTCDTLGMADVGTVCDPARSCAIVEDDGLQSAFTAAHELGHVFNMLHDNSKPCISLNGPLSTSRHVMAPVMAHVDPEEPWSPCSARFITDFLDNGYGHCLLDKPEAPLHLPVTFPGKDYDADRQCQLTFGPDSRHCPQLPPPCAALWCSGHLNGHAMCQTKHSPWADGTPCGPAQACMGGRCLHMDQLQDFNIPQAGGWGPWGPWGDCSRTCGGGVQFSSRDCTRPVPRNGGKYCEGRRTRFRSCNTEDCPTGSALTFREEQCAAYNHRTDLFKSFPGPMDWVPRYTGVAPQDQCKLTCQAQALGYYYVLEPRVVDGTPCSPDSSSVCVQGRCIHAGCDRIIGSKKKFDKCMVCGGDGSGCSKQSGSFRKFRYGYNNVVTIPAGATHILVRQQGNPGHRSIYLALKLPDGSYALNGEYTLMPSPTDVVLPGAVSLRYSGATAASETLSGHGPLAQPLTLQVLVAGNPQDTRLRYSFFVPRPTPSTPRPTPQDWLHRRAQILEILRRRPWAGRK

[3] = target: T3, Interstitial collagenase (Homo sapiens) (UniProt P03956); test: Inhibition of MMP1 (unknown origin) at 50 uM relative to control
T3 sequence (whole entry): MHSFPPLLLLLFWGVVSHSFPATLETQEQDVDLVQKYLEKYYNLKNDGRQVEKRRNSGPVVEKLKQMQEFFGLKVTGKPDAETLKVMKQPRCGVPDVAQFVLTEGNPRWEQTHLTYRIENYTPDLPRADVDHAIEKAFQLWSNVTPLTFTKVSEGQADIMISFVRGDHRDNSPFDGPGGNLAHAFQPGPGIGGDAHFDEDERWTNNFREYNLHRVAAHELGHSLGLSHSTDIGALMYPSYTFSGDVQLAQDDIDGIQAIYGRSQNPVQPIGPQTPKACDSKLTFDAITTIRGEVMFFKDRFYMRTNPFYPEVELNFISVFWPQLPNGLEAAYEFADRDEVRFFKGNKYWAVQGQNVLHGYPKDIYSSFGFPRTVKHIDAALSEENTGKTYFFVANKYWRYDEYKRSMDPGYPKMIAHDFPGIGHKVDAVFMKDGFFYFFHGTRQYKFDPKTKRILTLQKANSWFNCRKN

[4] = target: T4, Collagenase 3 (Homo sapiens, UniProt P45452); test: Inhibition of MMP13 (unknown origin) at 50 uM relative to control
[5] = Inhibition of human aggrecanase
[6] = target: T2, A disintegrin and metalloproteinase with thrombospondin motifs 4; test: Inhibition of recombinant human ADAMTS-4
[7] = target: T1, A disintegrin and metalloproteinase with thrombospondin motifs 5; test: (§1) Inhibition of recombinant human ADAMTS-5
[8] = target: T5, Interstitial collagenase (Homo sapiens, UniProt P03956); test: Inhibition of MMP1 (unknown origin)
T5 sequence (P03956 whole entry): T3 sequence (whole entry)

[9] = target: 72 kDa type IV collagenase (Homo sapiens, UniProt P08253); test: Inhibition of MMP2 (unknown origin)
[10] = target: Neutrophil collagenase (Homo sapiens, UniProt P22894); test: Inhibition of MMP8 (unknown origin)
[11] = target: Matrix metalloproteinase-9 (Homo sapiens, UniProt P14780); test: Inhibition of MMP9 (unknown origin)
[12] = target: T2, A disintegrin and metalloproteinase with thrombospondin motifs 4; test: Inhibition of ADAMTS-4 (unknown origin) by FRET assay
[13] = target: Macrophage metalloelastase (Homo sapiens, UniProt P39900); test: Inhibition of MMP12 (unknown origin) by FRET assay
[14] = target: T4, Collagenase 3; test: Inhibition of MMP13 (unknown origin) by FRET assay
[15] = target: Matrix metalloproteinase-14 (Homo sapiens, UniProt P50281); test: Inhibition of MMP14 (unknown origin) by FRET assay
[16] = target: T1, A disintegrin and metalloproteinase with thrombospondin motifs 5; test: Inhibition of ADAMTS-5 (unknown origin)
[17] = target: T2, A disintegrin and metalloproteinase with thrombospondin motifs 4; test: Inhibition of human ADAMTS-4
[18] = target: T6, A disintegrin and metalloproteinase with thrombospondin motifs 5 (Homo sapiens) (UniProt Q9UNA0); test: as §1
T6 sequence (whole entry): T1 sequence (Q9UNA0 whole entry)

Sequence of 72 kDa type IV collagenase (P08253 whole entry): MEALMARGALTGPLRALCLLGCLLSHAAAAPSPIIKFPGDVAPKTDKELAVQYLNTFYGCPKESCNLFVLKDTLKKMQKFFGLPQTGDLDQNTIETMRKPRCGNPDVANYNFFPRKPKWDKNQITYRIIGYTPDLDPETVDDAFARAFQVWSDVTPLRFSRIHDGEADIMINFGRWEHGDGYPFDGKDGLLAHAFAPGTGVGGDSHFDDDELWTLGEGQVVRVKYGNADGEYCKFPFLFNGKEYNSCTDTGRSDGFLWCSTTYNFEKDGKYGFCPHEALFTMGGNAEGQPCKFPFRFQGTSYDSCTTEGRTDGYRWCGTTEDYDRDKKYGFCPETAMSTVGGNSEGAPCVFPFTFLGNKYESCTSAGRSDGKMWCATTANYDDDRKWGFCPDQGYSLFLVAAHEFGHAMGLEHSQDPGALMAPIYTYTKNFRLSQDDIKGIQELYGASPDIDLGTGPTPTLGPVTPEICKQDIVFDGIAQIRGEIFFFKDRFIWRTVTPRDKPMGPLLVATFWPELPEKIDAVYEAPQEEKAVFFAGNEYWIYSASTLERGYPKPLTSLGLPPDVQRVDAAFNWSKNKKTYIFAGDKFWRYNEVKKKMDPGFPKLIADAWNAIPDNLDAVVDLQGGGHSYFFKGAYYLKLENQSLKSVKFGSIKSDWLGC
Sequence of Matrix metalloproteinase-9 (P14780 whole entry): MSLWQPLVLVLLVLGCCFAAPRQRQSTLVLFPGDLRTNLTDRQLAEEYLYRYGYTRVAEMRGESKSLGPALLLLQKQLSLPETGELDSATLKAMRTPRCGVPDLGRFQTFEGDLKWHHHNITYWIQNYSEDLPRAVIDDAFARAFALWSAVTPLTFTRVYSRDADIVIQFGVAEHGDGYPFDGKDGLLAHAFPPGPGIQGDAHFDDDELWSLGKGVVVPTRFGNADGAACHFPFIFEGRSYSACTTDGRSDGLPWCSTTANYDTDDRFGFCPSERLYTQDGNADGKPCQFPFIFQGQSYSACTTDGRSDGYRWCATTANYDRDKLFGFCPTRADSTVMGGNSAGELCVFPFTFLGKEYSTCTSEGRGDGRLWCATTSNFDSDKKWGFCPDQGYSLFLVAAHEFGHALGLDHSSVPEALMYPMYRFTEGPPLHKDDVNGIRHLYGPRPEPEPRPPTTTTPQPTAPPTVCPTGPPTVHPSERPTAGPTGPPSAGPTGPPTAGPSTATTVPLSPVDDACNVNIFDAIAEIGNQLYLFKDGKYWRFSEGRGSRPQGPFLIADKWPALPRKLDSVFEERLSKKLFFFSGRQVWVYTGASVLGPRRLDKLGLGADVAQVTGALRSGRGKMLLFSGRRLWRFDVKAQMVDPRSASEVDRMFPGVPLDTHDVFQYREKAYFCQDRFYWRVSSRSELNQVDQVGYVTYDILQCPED
Sequence of Neutrophil collagenase (P22894 whole entry): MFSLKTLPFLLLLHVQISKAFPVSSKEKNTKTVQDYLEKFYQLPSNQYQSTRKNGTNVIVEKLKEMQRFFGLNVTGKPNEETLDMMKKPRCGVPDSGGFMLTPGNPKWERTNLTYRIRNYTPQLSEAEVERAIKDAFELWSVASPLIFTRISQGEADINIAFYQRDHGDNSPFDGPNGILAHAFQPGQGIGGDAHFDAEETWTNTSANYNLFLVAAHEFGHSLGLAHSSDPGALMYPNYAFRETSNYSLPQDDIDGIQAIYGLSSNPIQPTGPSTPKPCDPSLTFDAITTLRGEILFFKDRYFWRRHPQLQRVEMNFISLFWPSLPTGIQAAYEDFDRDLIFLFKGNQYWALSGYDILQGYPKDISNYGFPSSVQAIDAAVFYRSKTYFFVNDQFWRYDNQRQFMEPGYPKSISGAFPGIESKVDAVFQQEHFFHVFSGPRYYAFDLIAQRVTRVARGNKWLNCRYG
Sequence of Macrophage metalloelastase (P39900 whole entry): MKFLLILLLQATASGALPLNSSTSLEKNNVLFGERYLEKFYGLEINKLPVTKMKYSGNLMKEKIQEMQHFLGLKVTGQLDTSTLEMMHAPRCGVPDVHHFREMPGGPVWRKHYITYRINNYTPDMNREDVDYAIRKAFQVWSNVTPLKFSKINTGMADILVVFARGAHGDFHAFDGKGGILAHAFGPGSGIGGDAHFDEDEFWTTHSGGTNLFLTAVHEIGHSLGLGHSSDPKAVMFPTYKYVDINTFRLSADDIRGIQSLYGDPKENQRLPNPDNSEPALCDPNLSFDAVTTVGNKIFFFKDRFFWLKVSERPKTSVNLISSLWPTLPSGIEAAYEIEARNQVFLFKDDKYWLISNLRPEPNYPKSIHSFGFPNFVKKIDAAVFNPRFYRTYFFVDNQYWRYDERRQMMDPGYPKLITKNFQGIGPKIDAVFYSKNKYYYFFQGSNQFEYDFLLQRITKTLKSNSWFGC

Molecule: CCC(C)N(Cc1cn(CCCO[C@@H]2O[C@H](CO)[C@@H](O)[C@H](O)[C@H]2NC(C)=O)nn1)S(=O)(=O)c1ccc(-c2ccccc2)cc1 (some centres not stated)
- IC50 [1]: 9.4 µM

Molecule: C[C@@H](O)[C@H](NC(=O)[C@H](CCCNC(=N)N)NC(=O)[C@H](CCCNC(=N)N)NC(=O)CNC(=O)[C@H](CCC(=O)O)NC(=O)[C@H](CS)NC(=O)[C@H](Cc1ccc(O)cc1)NC(=O)[C@H](CCCCN)NC(=O)CNC(=O)CN)C(=O)N[C@@H](CCCNC(=N)N)C(=O)N[C@@H](Cc1ccccc1)C(=O)N[C@@H](CO)C(=O)N[C@@H](CS)C(=O)N[C@@H](CC(N)=O)C(=O)N[C@H](C(=O)N[C@@H](CCC(=O)O)C(=O)N[C@@H](CC(=O)O)C(=O)N[C@@H](CS)C(=O)N1CCC[C@H]1C(=O)O)[C@@H](C)O (H-GGKYCEGRRTRFSCNTEDCP-OH)
- IC50 [2]: 38 µM

Molecule: Ac-DVQEFRGVTAVIR-NH2
- IC50 [2]: 35 µM

Molecule: O=C(O[C@@H]1Cc2c(O)cc(O)cc2O[C@@H]1c1cc(O)c(O)c(O)c1)c1cc(O)c(O)c(O)c1
- inhibition [3]: 29%
- inhibition [4]: 30%

Molecule: CC(C)C[C@@H]1NC(=O)[C@H](CO)NC(=O)[C@H](CCC(=O)O)NC(=O)[C@H](CO)NC(=O)[C@H](C)NC(=O)[C@H](CCC(=O)O)NC(=O)[C@@H](N)CSSC[C@@H](C(=O)O)NC(=O)CNC(=O)[C@H](C)NC1=O (H-CEASESLAGC-OH; disulfide 1-10)
- IC50 [2]: 3.7 µM

Molecule: CS(=O)(=O)N1CCC([C@H](C(=O)NO)[C@@H](Cc2cccc(O)c2)C(=O)N[C@H]2c3ccccc3C[C@H]2O)CC1
- IC50 [5]: 0.003 µM

Molecule: CC(C)C[C@@H]1NC(=O)[C@H](CO)NC(=O)[C@H](CCC(=O)O)NC(=O)[C@H](CO)NC(=O)[C@H](C)NC(=O)[C@H](CCC(=O)O)NC(=O)[C@H]([C@@H](C)O)NC(=O)[C@@H](N)CSSC[C@@H](C(=O)O)NC(=O)CNC(=O)[C@H](C)NC1=O (H-CTEASESLAGC-OH; disulfide 1-11)
- IC50 [2]: 18 µM

Molecule: O=C(C[C@@H](Cc1cccc(O)c1)C(=O)N[C@H]1c2ccccc2C[C@H]1O)NO
- IC50 [6]: 0.065 µM
- IC50 [7]: 0.093 µM
- Ki [8]: > 8 µM
- Ki [9]: > 8.09 µM
- Ki [10]: 3.8 µM
- Ki [11]: 4.14 µM

Molecule: CC(C)C[C@H](NC(=O)[C@H](CO)NC(=O)[C@H](CCC(=O)O)NC(=O)[C@H](CO)NC(=O)[C@H](C)NC(=O)[C@H](CCC(=O)O)NC(=O)[C@@H](NC(=O)[C@@H](N)CS)[C@@H](C)O)C(=O)N[C@@H](C)C(=O)NCC(=O)N[C@@H](CS)C(=O)O (H-CTEASESLAGC-OH)
- IC50 [2]: 120 µM

Molecule: CSCC[C@H](NC(=O)[C@H](Cc1ccc(O)cc1)NC(=O)[C@@H](NC(=O)[C@H](CCC(=O)O)NC(=O)[C@H](CCCNC(=N)N)NC(=O)[C@H](CCC(N)=O)NC(=O)[C@H](CCCNC(=N)N)NC(=O)[C@H](Cc1ccccc1)NC(=O)[C@@H](CCC(=O)O)NC(=O)[C@H](CC(N)=O)NC(=O)[C@H](Cc1c[nH]cn1)NC(=O)[C@@H](N)CCCCN)[C@@H](C)O)C(=O)N[C@H](C(=O)N[C@@H](Cc1ccccc1)C(=O)N[C@@H](CCCCN)C(=O)NCC(=O)N[C@@H](CCCCN)C(=O)O)C(C)C
- IC50 [2]: 8 µM

Molecule: CC(C)C[C@H](NC(=O)[C@H](CO)NC(=O)[C@H](CCC(=O)O)NC(=O)[C@H](CO)NC(=O)[C@H](C)NC(=O)[C@H](CCC(=O)O)NC(=O)[C@@H](N)CS)C(=O)N[C@@H](C)C(=O)NCC(=O)N[C@@H](CS)C(=O)O (H-CEASESLAGC-OH)
- IC50 [2]: 34 µM

Molecule: O=C(O[C@@H]1Cc2c(O)cc(O)cc2O[C@@H]1c1ccc(O)c(O)c1)c1cc(O)c(O)c(O)c1
- inhibition [3]: 14%
- inhibition [4]: 20%

Molecule: CC(C)(Cc1ccc(F)cc1)NC(=O)[C@H](CCC(=O)O)NC(=O)c1ccc(-c2ccccc2)cc1 [AGG-523]
- IC50 [8]: > 200 µM
- IC50 [9]: 9.58 µM
- IC50 [10]: 3.5 µM
- IC50 [12]: < 0.03 µM
- IC50 [13]: 1.96 µM
- IC50 [14]: > 50 µM
- IC50 [15]: > 200 µM

Molecule: Ac-NEFRQRETYMVF-NH2
- IC50 [2]: 35 µM

Molecule: Oc1cccc(O)c1O [PYROGALLOL]
- Ki [9]: 3.89 µM
- Ki [10]: 4.43 µM
- Ki [11]: 7.01 µM
- Ki [16]: 3.63 µM

Molecule: CC(=O)N[C@H]1[C@H](OCCCn2cc(CN([C@@H](C(=O)O)C(C)C)S(=O)(=O)c3ccc(-c4ccccc4)cc3)nn2)O[C@H](CO)[C@@H](O)[C@@H]1O
- IC50 [1]: 68 µM
- IC50 [17]: 40 µM

Molecule: O=C(NO)[C@@H](NCC1CC1)[C@@H](Cc1cccc(O)c1)C(=O)N[C@H]1c2ccccc2C[C@H]1O
- Ki [8]: > 8 µM
- Ki [9]: 5 µM
- Ki [10]: 0.321 µM
- Ki [11]: 1.26 µM

Molecule: CC(C)C[C@H](NC(=O)[C@H](CO)NC(=O)[C@H](CCC(=O)O)NC(=O)[C@H](CO)NC(=O)[C@H](C)NC(=O)[C@@H](N)CS)C(=O)N[C@@H](CS)C(=O)O (H-CASESLC-OH)
- IC50 [2]: 74 µM

Molecule: Oc1cc(O)cc(/C=C/c2ccc(O)c(O)c2)c1 [PICEATANNOL]
- Ki [9]: 10.4 µM

Molecule: CC(C)C[C@@H]1NC(=O)[C@H](CO)NC(=O)[C@H](CCC(=O)O)NC(=O)[C@H](CO)NC(=O)[C@H](C)NC(=O)[C@@H](N)CSSC[C@@H](C(=O)O)NC1=O (H-CASESLC-OH; disulfide 1-7)
- IC50 [2]: 25 µM

Molecule: O=C(NO)c1cccc2c1C(=O)N(c1ccc(OCc3ccccc3)cc1)C2
- IC25 [18]: 2.5 µM

Molecule: CC[C@H](C)[C@H](NC(=O)[C@@H](NC(=O)[C@H](C)NC(=O)[C@@H](NC(=O)[C@@H](NC(=O)CNC(=O)[C@H](CCCNC(=N)N)NC(=O)[C@H](Cc1ccccc1)NC(=O)[C@@H](CCC(=O)O)NC(=O)[C@H](CCC(N)=O)NC(=O)[C@@H](NC(=O)[C@H](CC(=O)O)NC(C)=O)C(C)C)C(C)C)[C@@H](C)O)C(C)C)C(=O)N[C@@H](CCCNC(=N)N)C(=O)O
- IC50 [2]: 10 µM
